Drawing on ChEMBL document CHEMBL1121865, “Epimeric cis-decahydroquinoline-5-carboxylic acids: effects on gamma-aminobutyric acid uptake and receptor binding in vitro” (J Med Chem, 1981), this text covers Displacement and inhibition for 4 compounds.

In test [1] the target is T1, GABA-A receptor; anion channel (Rattus norvegicus) (UniProt O09028+P15431+P18506+P18508+P19969+P20236+P23574+P23576+P28471+P28473+P30191+P62813+P63079+P63138+Q91ZM7+Q9ES14). Particulars: Membrane, 0.01 uM.
Description: Percent displacement of [3H]GABA at Gamma-aminobutyric acid receptor of rat brain membranes at 0.01 uM
The target of test [2] is T1, GABA-A receptor; anion channel (Rattus norvegicus). Put plainly: Percent displacement of [3H]GABA at Gamma-aminobutyric acid receptor of rat brain membranes at 100 uM. The test is classed as cell membranes. Particulars: Membrane.
The target of test [3] is GABA transporter (Rattus norvegicus) (UniProt P31647+P23978+P31646+P48056). Put plainly: Percent inhibition of high affinity [3H]GABA uptake into rat brain synaptosomes at 100 uM. It is filed as functional, subcellular.

Structures are written as SMILES.

Chain of GABA transporter (Rattus norvegicus) (P31646 whole entry, looked up): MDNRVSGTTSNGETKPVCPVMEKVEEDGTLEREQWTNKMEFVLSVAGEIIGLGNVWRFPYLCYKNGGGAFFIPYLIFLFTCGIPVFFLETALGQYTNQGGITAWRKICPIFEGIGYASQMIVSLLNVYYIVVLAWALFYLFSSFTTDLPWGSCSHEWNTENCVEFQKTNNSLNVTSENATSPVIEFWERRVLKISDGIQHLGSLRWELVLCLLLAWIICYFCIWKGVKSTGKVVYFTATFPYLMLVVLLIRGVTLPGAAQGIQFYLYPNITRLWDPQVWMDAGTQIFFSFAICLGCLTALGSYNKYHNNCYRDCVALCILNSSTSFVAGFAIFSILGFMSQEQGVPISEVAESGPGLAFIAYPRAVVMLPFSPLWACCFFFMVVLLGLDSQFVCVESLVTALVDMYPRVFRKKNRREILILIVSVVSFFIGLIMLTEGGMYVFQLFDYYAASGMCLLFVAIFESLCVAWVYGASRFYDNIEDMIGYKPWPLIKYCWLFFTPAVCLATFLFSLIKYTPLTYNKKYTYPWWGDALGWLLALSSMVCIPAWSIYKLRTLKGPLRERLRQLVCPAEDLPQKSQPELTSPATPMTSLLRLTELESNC
Chain of GABA transporter (Rattus norvegicus) (P31647 whole entry, looked up): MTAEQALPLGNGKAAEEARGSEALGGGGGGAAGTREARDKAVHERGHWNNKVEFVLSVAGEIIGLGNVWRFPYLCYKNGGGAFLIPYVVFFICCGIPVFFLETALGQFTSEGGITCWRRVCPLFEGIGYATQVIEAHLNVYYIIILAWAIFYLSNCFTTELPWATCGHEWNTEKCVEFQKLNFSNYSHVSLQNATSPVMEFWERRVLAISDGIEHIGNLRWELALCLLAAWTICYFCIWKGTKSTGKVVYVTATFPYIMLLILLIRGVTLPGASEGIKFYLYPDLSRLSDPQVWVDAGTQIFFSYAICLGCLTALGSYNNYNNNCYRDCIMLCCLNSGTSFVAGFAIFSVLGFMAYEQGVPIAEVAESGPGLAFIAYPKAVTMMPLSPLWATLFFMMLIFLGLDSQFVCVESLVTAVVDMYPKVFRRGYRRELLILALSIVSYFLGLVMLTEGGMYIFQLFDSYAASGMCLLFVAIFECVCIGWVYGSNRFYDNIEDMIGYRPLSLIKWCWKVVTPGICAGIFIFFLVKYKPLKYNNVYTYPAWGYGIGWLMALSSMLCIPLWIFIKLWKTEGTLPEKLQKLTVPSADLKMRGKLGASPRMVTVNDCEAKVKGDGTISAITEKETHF
Chain of GABA transporter (Rattus norvegicus) (P48056 whole entry, looked up): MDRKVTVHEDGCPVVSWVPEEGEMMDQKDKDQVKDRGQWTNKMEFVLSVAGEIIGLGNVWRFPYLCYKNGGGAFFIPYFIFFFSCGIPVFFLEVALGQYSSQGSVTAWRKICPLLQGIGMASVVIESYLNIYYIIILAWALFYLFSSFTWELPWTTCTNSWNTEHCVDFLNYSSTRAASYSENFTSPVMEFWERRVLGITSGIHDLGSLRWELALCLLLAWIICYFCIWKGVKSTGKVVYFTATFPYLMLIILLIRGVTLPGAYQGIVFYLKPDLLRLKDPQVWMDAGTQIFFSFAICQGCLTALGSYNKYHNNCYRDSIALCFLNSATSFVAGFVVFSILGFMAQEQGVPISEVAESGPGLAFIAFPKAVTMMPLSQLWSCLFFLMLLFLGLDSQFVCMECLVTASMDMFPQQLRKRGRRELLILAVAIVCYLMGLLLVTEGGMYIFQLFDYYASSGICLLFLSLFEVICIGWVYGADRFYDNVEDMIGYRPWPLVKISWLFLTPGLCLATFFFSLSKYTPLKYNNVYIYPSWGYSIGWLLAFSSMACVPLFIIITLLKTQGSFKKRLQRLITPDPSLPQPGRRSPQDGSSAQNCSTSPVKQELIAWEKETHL

`NCCCC(=O)O` showed a Displacement in test [1] of 48%. The same measure, in the same setting: the result for `NCc1cc(O)no1` reads 86%. As usually defined, the inhibition is the change of the read-out against control, counted positive when it falls. For `O=C(O)C1CCCC2NCCCC21` (cis isomer), the Displacement in test [2] is 17%. Besides, the inhibition in test [3] was 20%.

Consider `O=C(O)C1CCCC2NCCCC21` (stereo in doubt), for which, in test [2], the Displacement is below 5%. In test [3], this compound showed an inhibition below 1%.
